36 compounds from patent publication US8426447B2, “Spiro-tricyclic ring compounds as beta-secretase modulators and methods of use” (Amgen Inc., priority 2008, dated 2013) can be followed below.

The target in experiment [1] is T1, BACE1 (Homo sapiens, UniProt P56817). Description: In Vitro BACE Cell-based Assay (HEK cell assay): Aβ40 in conditioned medium of cells stably expressing Amyloid Precursor Protein, sandwich ELISA. The method, then:
In Vitro BACE Cell-based Assay
The cell-based assay measures inhibition or reduction of Aβ40 in conditioned medium of test compound treated cells expressing amyloid precursor protein.
Cells stably expressing Amyloid Precursor Protein (APP) were plated at a density of 40K cells/well in 96 well plates (Costar). The cells were cultivated for 24 hours at 37° C. and 5% CO2 in DMEM supplemented with 10% FBS. The test compounds were then added to cells in 10-point dose response concentrations with the starting concentration being either 100 μM or 10 μM. The compounds were diluted from stock solutions in DMSO and the final DMSO concentration of the test compounds on cells was 0.1%. After 24 h of incubation with the test compounds the supernatant conditioned media was collected and the Aβ 40 levels were determined using a sandwich ELISA. The IC50 of the compound was calculated from the percent of control or percent inhibition of Aβ 40 as a function of the concentration of the test compound.
The sandwich ELISA to detect Aβ 40 was performed in 96 well microtiter plates, which were pre-treated with goat anti-rabbit IgG (Pierce). The capture and detecting antibody pair that were used to detect Aβ 40 from cell supernatants were affinity purified pAb40 (Biosource) and biotinylated 6E10 (Signet Labs Inc.), respectively. The optimal concentration for the pAb40 antibody was 3 μg/ml in Superblock/TBS (Pierce) that was supplemented with 0.05% Tween 20 (Sigma).
Cellular supernatants were incubated with the capture antibody for 3 h at 4° C., followed by 3 wash steps in TBS-tween (0.05%). The detecting antibody incubation was for 2 h at 4° C., again followed by the wash steps as described previously. The final readout of the ELISA is Time-Resolved Fluorescence (counts per minute) using Delfia reagents Streptavidin-Europium and Enhancement solutions (Perkin Elmer) and the Victor 2 multilabel counter (Perkin Elmer).
On the technique in general: An ELISA detects its analyte on a solid surface through an enzyme-linked reagent.

Experiment [2] has as its target T1, BACE1. Description: In Vitro Enzymatic BACE FRET (Fluorescence Resonance Energy Transfer) Assay. It is filed as biochemical. On the procedure: In Vitro Enzymatic BACE FRET (Fluorescence Resonance Energy Transfer) Assay (Enzyme Assay Data in the Example Tables I, II, III & IV) The assay buffer used in this screen is 0.05 M acetate, pH 4.2, 10% DMSO final, 100 uM genapol (which is a nonionic detergent, below its Critical Micelle Concentration). […] This assay is effectively started by the addition of FRET substrate (50 nM) and the combination is incubated for one hour. The FRET assay is terminated with by addition of Tris buffer, which raises the pH to neutrality, and the fluorescence is determined. The FRET substrate is a peptide with commercially available fluorophore and quencher, on opposite sides of the BACE cleavage site. […]

The mark [3] stands for this setting: Table III, IC50's in uM ranges, read-out: HEK cell assay.
[4] abbreviates: Table III, IC50's in uM ranges, read-out: BACE1 FRET assay.
Setting [5] is: Table IV, class symbols, read-out: HEK cell assay.
The mark [6] stands for this setting: Table IV, class symbols, read-out: BACE1 FRET assay.
The mark [7] stands for this setting: HEK cell-based assay, Aβ40 in conditioned medium, IC50 class symbols, read-out: HEK cell assay.
The mark [8] stands for this setting: in vitro BACE FRET enzyme assay, IC50 class symbols, read-out: BACE1 FRET assay.
Where [9] appears, read: HEK cells, read-out: HEK cell assay.

A value given as a limit tells only on which side of the number the result lay.

T1 sequence (P56817 46-501, species assumed): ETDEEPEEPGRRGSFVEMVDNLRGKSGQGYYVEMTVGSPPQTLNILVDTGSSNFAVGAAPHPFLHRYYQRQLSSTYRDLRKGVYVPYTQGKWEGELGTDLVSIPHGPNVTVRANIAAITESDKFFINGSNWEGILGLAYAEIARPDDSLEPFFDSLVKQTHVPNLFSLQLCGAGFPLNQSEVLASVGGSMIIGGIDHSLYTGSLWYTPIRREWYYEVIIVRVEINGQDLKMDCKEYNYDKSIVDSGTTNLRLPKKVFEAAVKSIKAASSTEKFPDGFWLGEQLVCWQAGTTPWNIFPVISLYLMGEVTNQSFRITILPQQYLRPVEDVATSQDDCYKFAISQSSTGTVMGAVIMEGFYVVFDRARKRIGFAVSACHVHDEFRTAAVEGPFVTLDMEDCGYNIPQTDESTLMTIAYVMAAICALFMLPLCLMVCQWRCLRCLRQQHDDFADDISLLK

Turning to `COc1ccc(-c2ccc3c(c2)[C@@]2(COC(N)=N2)c2cc(C#CC(C)(C)OC)cnc2O3)cn1` [compound 767], the IC50 at BACE1 [1] (read-out: HEK cell assay) and on BACE1 [2] (read-out: BACE1 FRET assay) was 0.1 to 1 µM throughout.

As for `CC(C)(C)COc1ccc2c(c1)[C@]1(COC(N)=N1)c1cc(C3CCCC3)ccc1O2` [compound 701], the IC50 at BACE1 [1] (read-out: HEK cell assay) is 1 to 5 µM; on BACE1 [2] (read-out: BACE1 FRET assay) it was less than 0.1 µM.

For `CC(C)(C)COc1ccc2c(c1)[C@@]1(COC(N)=N1)c1cc(-c3ccc(OCC(F)(F)F)nc3)cnc1O2` [compound 740], the IC50 at BACE1 [1] (read-out: HEK cell assay) and on BACE1 [2] (read-out: BACE1 FRET assay) was less than 0.1 µM throughout.

As for `Cc1noc(C)c1-c1ccc2c(c1)[C@]1(COC(N)=N1)c1cc(OCC(C)(C)C)ccc1O2` [compound 189], the IC50 is more than 5 µM on BACE1 [1] (setting [3]) and 0.1 to 1 µM at BACE1 [2] (setting [4]).

Regarding `NC1=NC2(CO1)c1cc(-c3ccccc3)ccc1Oc1ccc(-c3ccccc3)cc12` [compound 532], the IC50 at BACE1 [1] (setting [5]) was 0.1 to 1 µM; on BACE1 [2] (setting [6]), less than 0.1 µM.

`COc1ccc2c(c1)C1(COC(N)=N1)c1cc(Br)ccc1O2` (stereo not drawn) [Example 35, 2′-bromo-7′-methoxyspiro[1,3-oxazole-4,9′-xanthen]-2-amine]: the IC50 on BACE1 [1] (Table 1, Aβ40, 24 h incubation, read-out: HEK cell assay) was more than 5 µM; on BACE1 [2] (Table 1, read-out: BACE1 FRET assay), more than 5 µM.

For the compound `NC1=N[C@@]2(CO1)c1cc(-c3cccnc3F)ccc1Oc1cnc(C3=CCOCC3)cc12` [Example 294, (S)-3-(3,6-dihydro-2H-pyran-4-yl)-7-(2-fluoropyridin-3-yl)-5′H-spiro[chromeno[2,3-c]pyridine-5,4′-oxazol]-2′-amine], the IC50 against BACE1 [1] (HEK cell assay, Table IV, class symbols) was less than 0.1 µM; on BACE1 [2] (BACE1 FRET assay, Table IV, class symbols), less than 0.1 µM.

For the compound `CC(C)(O)C#Cc1ccc2c(c1)C1(COC(N)=N1)c1cc(C#CC(C)(C)O)cnc1O2` (stereo not drawn) [Example 114, 4,4′-(−2′-aminospiro[chromeno[2,3-b]pyridine-5,4′-[1,3]oxazole]-3,7-diyl)bis(2-methyl-3-butyn-2-ol)], the IC50 at BACE1 [1] (setting [3]) and at BACE1 [2] (setting [4]) was 0.1 to 1 µM in each case.

In the case of `CC(=O)c1ccccc1-c1ccc2c(c1)[C@]1(COC(N)=N1)c1cc(OCC(C)(C)C)ccc1O2` [compound 190], the IC50 at BACE1 [1] (setting [3]) was more than 5 µM; at BACE1 [2] (setting [4]) it was 0.1 to 1 µM.

With `CC(C)(O)C#Cc1ccc2c(c1)[C@@]1(COC(N)=N1)c1cc(C#CC(C)(C)O)cnc1O2` [compound 935], the IC50 at BACE1 [1] (read-out: HEK cell assay) and on BACE1 [2] (read-out: BACE1 FRET assay) was 0.1 to 1 µM each time.

Regarding `NC1=N[C@]2(CO1)c1cc(-c3ccc(F)nc3)ccc1Oc1ncc(C3=CCOCC3)cc12` [compound 716], the IC50 at BACE1 [1] (read-out: HEK cell assay) and at BACE1 [2] (read-out: BACE1 FRET assay) was 1 to 5 µM throughout.

Take `CC(C)(C)CC(=O)c1ccc2c(c1)[C@@]1(CSC(N)=N1)c1cc(-c3cncnc3)ccc1O2` [compound 762]: the IC50 at BACE1 [1] (read-out: HEK cell assay) was 1 to 5 µM; on BACE1 [2] (read-out: BACE1 FRET assay), 0.1 to 1 µM.

Turning to `Cn1cncc1-c1ccc2c(c1)[C@]1(COC(N)=N1)c1cc(OCC(C)(C)C)ccc1O2` [compound 187], the IC50 at BACE1 [1] (setting [3]) and at BACE1 [2] (setting [4]) was 1 to 5 µM each time.

For the compound `COC(C)(C)C#Cc1cnc2c(c1)[C@]1(COC(N)=N1)c1cc(-c3ccnc(F)c3)ccc1O2` [compound 687], the IC50 on BACE1 [1] (read-out: HEK cell assay) was more than 5 µM; at BACE1 [2] (read-out: BACE1 FRET assay) it was 1 to 5 µM.

As for `NC1=N[C@@]2(CO1)c1cc(-c3cc(Cl)ccc3F)ccc1Oc1cnc(-c3ccncc3)cc12` [compound 330], the IC50 on BACE1 [1] (setting [7]) and on BACE1 [2] (setting [8]) was less than 0.1 µM throughout.

With `Cn1cnc(-c2ccc3c(c2)[C@]2(COC(N)=N2)c2cc(-c4cccnc4)ccc2O3)c1` [compound 554], the IC50 is less than 0.1 µM on BACE1 [1] (setting [5]) and 0.1 to 1 µM at BACE1 [2] (setting [6]).

Regarding `CC(C)(C)COc1ccc2c(c1)[C@]1(COC(N)=N1)c1cc(-c3cnc4ccccn34)ccc1O2` [compound 975], the IC50 at BACE1 [1] (read-out: HEK cell assay) and on BACE1 [2] (read-out: BACE1 FRET assay) was 0.1 to 1 µM each time.

As for `NC1=N[C@@]2(CO1)c1cc(-c3cccnc3)ccc1Oc1ncc(-c3cccnc3)cc12` [compound 203], the IC50 on BACE1 [1] (setting [3]) was in the range of 1 to 5 µM; on BACE1 [2] (setting [4]), 0.1 to 1 µM.

Turning to `CC1(C)CN(c2cc(F)c3c(c2)[C@@]2(COC(N)=N2)c2cc(-c4cncnc4)ccc2O3)CCO1` [compound 506], the IC50 on BACE1 [1] (setting [9]) was 1 to 5 µM; at BACE1 [2] (read-out: BACE1 FRET assay) it was 0.1 to 1 µM.

Turning to `CN1CCN(c2cc3c(cn2)Oc2ccc(-c4cccnc4)cc2[C@@]32COC(N)=N2)CC1` [compound 444], the IC50 on BACE1 [1] (setting [9]) and at BACE1 [2] (read-out: BACE1 FRET assay) was less than 0.1 µM throughout.

Consider `NC1=N[C@]2(CO1)c1cc(-c3cccnc3)ccc1Oc1c(F)cc(C3=CCOCC3)cc12` [compound 644], for which the results for the IC50 at BACE1 [1] (setting [5]) and on BACE1 [2] (setting [6]) were 1 to 5 µM and 0.1 to 1 µM, respectively.

In the case of `NC1=N[C@@]2(CO1)c1cc(-c3cncnc3)ccc1Oc1ncc(C#CC3CC3)cc12` [compound 742], the IC50 on BACE1 [1] (read-out: HEK cell assay) and on BACE1 [2] (read-out: BACE1 FRET assay) was less than 0.1 µM throughout.

Take `CCC(C)(O)COc1ccc2c(c1)[C@]1(COC(N)=N1)c1cc(-c3cccnc3)ccc1O2` (stereo partly drawn) [compound 770]: the IC50 on BACE1 [1] (read-out: HEK cell assay) and at BACE1 [2] (read-out: BACE1 FRET assay) was less than 0.1 µM in each case.

For the compound `NC1=N[C@@]2(CO1)c1cc(-c3cccnc3)ccc1Oc1ccc(-c3cnoc3)cc12` [compound 623], the IC50 on BACE1 [1] (setting [5]) and at BACE1 [2] (setting [6]) was less than 0.1 µM in each case.

`CC1(C)C=C(c2cc(F)c3c(c2)[C@]2(COC(N)=N2)c2cc(-c4cncnc4)ccc2O3)CCO1` [compound 466]: the IC50 at BACE1 [1] (setting [9]) and on BACE1 [2] (read-out: BACE1 FRET assay) was less than 0.1 µM each time.

Take `CCOC1CN(c2ccc3c(c2)[C@]2(COC(N)=N2)c2cc(-c4cccnc4)ccc2O3)C1` [compound 415]: the IC50 on BACE1 [1] (setting [7]) and on BACE1 [2] (setting [8]) was less than 0.1 µM in each case.

As to `CC(C)(C)COc1ccc2c(c1)[C@]1(COC(N)=N1)c1cc(-c3csc(N4CCCC4)n3)ccc1O2` [compound 215], the IC50 at BACE1 [1] (setting [3]) was more than 5 µM; on BACE1 [2] (setting [4]), 1 to 5 µM.

As to `NC1=N[C@@]2(CO1)c1cc(-c3cccnc3)ccc1Oc1ccc(-c3cncnc3)cc12` [compound 225], the IC50 on BACE1 [1] (setting [3]) and on BACE1 [2] (setting [4]) was less than 0.1 µM in each case.

`COc1ccc2c(c1)[C@]1(COC(N)=N1)c1cc(C#CC(C)(C)OC)cnc1O2` [compound 901]: the results for the IC50 on BACE1 [1] (setting [5]) and on BACE1 [2] (setting [6]) were more than 5 µM and 1 to 5 µM, respectively.

Regarding `NC1=N[C@]2(CO1)c1cc(OCC3CCCO3)ccc1Oc1ccc(-c3cncnc3)cc12` (stereo partly drawn) [Example 60, (4S)-2′-(5-pyrimidinyl)-7′-(tetrahydro-2-furanylmethoxy)spiro[1,3-oxazole-4,9′-xanthen]-2-amine], the IC50 on BACE1 [1] (Table II, Aβ40, 24 h incubation, read-out: HEK cell assay) was less than 0.1 µM; at BACE1 [2] (Table II, read-out: BACE1 FRET assay), less than 0.1 µM.

For the compound `CC(C)(C)CCc1ccc2c(c1)[C@]1(COC(N)=N1)c1cc(Oc3ccccn3)ccc1O2` [compound 205], the IC50 was 0.1 to 1 µM on BACE1 [1] (setting [3]) and less than 0.1 µM on BACE1 [2] (setting [4]).

For the compound `COc1ccc2c(c1)[C@@]1(COC(N)=N1)c1cc(C3=CCOCC3)cc(F)c1O2` [compound 364], the values for the IC50 on BACE1 [1] (setting [7]) and on BACE1 [2] (setting [8]) were 1 to 5 µM and 0.1 to 1 µM, respectively.

Consider `CC(C)(C)COc1ccc2c(c1)[C@]1(COC(N)=N1)c1cc(-c3cccnc3C(F)(F)F)ccc1O2` [compound 911], for which the IC50 at BACE1 [1] (setting [5]) is more than 5 µM; at BACE1 [2] (setting [6]), 0.1 to 1 µM.

With `Cc1ccc(-c2cnc3c(c2)[C@]2(COC(N)=N2)c2cc(C#CC(C)(C)O)ccc2O3)cc1` [compound 579], the IC50 on BACE1 [1] (setting [5]) and at BACE1 [2] (setting [6]) was less than 0.1 µM in each case.

As to `COc1ccncc1-c1ccc2c(c1)[C@]1(COC(N)=N1)c1cc(OCC(C)(C)C)ccc1O2` [compound 778], the IC50 on BACE1 [1] (read-out: HEK cell assay) and on BACE1 [2] (read-out: BACE1 FRET assay) was 1 to 5 µM in each case.

In the case of `CSc1ccc(-c2ccc3c(c2)[C@]2(COC(N)=N2)c2cc(OCC(C)(C)C)ccc2O3)cc1` [compound 787], the results for the IC50 at BACE1 [1] (read-out: HEK cell assay) and on BACE1 [2] (read-out: BACE1 FRET assay) were 1 to 5 µM and less than 0.1 µM, respectively.
